# Entries after “also recorded” stand apart in the source; their conditions may differ. Where two headings read alike, the source gives them in different places.
# Tests used:
# [1] = molecular target: T1, hTRPA1 (Homo sapiens, UniProt O75762, K186N); assay: TRPA1 patch clamp (perforated patch, AITC-activated current); type: cell-based
# T1 construct: expressed in transfected cells; host or cells: HEK293/TREx (Invitrogen), induced with tetracycline
# Outline: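 HEK293 TREx cells expressing the channel were recorded by amphotericin perforated patch at −40 mV holding, with 400 ms ramps from −120 to +100 mV every 5 s. Current was activated with 5 μM AITC in pH 7.4 external solution, and block of inward and outward current was measured at −80 and +80 mV with AITC still present.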
# [2] = Plasma levels / pharmacokinetics in male Sprague-Dawley rat; type: in vivo
# Method: Compound 200 plasma levels were determined via HPLC/MS/MS following a single intravenous bolus dose of 0.9 mg/kg, an intraperitoneal dose of 12 mg/kg (suspension), and an oral dose of 12 mg/kg (suspension) in the male Sprague-Dawley rat. […] For intraperitoneal administration, Compound 200 was formulated as a uniform suspension in CMC (carboxymethylcellulose) at a target concentration of 1 mg/mL and administered at a dose volume of 10 mL/kg. For oral administration, Compound 200 was formulated as a uniform suspension in CMC (carboxymethylcellulose), at a target concentration of 1 mg/mL, administered by gavage, at a dose volume of 10 mL/kg, to the conscious, fasted, male Sprague-Dawley rat.
# [3] = molecular target: hTRPV4 (Homo sapiens, UniProt Q9HBA0); assay: hTRPV4 patch clamp selectivity; type: cell-based; details: Table 2
# hTRPV4, sequence (Q9HBA0 whole entry): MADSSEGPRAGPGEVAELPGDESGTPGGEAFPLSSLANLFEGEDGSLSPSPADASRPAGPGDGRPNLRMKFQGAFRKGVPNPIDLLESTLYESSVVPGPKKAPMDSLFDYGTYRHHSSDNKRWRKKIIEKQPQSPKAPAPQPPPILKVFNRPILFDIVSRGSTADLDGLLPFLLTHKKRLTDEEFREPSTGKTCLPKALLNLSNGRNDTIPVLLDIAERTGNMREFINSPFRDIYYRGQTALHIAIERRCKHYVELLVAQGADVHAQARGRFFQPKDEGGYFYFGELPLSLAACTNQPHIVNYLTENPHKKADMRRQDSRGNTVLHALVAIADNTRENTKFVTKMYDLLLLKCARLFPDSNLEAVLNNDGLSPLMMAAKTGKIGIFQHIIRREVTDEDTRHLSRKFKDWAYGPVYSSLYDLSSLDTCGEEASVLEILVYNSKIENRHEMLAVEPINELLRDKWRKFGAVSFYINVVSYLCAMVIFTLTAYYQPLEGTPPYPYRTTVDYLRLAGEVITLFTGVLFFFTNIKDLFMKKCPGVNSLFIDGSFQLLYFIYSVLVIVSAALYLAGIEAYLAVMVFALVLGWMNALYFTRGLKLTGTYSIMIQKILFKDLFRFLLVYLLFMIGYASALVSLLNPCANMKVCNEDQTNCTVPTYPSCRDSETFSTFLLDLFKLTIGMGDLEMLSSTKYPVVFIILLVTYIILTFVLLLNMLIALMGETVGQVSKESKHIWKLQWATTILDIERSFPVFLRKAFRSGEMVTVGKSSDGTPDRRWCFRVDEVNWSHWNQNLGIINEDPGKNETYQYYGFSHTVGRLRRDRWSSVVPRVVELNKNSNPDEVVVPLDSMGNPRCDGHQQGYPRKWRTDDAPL
# [4] = molecular target: hNaV1.2 (Homo sapiens, UniProt Q99250); assay: hNaV1.2 patch clamp (Qpatch) selectivity; type: cell-based; details: Table 2
# hNaV1.2, sequence (Q99250 whole entry): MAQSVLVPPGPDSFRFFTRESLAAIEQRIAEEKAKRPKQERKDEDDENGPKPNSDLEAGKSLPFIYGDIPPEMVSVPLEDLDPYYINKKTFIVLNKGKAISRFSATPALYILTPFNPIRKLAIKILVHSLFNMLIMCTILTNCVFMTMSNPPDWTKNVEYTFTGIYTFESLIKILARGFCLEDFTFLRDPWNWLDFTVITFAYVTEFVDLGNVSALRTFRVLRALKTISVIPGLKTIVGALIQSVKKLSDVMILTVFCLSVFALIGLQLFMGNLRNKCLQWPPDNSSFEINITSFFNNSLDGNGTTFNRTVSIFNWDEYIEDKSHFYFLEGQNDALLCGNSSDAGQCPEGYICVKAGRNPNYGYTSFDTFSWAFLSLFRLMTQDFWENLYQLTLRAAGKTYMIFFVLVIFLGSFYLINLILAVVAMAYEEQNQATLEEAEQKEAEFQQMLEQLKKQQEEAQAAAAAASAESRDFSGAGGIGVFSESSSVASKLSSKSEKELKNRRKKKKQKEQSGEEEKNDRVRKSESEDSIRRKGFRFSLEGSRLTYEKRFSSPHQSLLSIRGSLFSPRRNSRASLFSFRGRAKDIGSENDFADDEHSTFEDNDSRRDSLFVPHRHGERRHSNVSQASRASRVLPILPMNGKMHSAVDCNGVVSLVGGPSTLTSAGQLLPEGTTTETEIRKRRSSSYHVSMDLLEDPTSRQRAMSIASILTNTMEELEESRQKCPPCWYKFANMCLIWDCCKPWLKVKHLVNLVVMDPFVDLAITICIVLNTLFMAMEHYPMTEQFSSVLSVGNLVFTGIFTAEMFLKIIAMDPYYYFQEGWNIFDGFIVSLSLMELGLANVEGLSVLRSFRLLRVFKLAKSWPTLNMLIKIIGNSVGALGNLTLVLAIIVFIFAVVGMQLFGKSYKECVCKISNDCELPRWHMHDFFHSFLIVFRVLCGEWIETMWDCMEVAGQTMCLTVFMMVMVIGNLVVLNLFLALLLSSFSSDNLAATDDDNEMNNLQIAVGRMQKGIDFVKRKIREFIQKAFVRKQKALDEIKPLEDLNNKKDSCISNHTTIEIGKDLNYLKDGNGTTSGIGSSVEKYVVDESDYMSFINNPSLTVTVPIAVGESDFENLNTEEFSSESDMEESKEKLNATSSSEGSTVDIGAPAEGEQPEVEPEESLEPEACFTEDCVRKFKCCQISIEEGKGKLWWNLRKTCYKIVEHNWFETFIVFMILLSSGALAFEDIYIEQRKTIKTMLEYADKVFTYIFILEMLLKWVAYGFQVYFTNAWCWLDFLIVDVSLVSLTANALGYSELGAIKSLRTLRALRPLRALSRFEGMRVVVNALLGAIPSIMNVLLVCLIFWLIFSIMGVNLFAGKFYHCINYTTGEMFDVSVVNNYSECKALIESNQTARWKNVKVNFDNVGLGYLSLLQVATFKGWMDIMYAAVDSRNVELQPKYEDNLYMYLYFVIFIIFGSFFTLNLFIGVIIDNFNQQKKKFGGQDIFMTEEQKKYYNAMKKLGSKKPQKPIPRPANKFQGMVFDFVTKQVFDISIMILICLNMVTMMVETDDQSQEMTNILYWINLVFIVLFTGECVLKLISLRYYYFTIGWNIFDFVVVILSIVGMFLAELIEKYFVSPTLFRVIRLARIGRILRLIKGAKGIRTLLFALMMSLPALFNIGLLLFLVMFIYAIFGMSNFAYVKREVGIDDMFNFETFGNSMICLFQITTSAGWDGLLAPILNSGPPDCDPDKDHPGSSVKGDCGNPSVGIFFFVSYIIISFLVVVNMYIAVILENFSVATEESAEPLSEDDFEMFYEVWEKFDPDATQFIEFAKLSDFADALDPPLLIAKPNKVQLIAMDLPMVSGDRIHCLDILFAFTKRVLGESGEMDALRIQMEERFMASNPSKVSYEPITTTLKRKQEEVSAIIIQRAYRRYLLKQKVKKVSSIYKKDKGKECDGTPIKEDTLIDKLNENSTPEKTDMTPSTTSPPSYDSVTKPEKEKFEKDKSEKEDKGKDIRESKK
# [5] = Stability in rat plasma; type: in vitro ADME; details: 37° C.
# Method: Compound 200 was stable in rat plasma for ≧1 hour at 37° C.
# [6] = molecular target: hERG (Homo sapiens, UniProt Q12809); assay: in vitro; details: selective for TRPA1 over hERG
# hERG, sequence (Q12809 whole entry, the tested form may be a part): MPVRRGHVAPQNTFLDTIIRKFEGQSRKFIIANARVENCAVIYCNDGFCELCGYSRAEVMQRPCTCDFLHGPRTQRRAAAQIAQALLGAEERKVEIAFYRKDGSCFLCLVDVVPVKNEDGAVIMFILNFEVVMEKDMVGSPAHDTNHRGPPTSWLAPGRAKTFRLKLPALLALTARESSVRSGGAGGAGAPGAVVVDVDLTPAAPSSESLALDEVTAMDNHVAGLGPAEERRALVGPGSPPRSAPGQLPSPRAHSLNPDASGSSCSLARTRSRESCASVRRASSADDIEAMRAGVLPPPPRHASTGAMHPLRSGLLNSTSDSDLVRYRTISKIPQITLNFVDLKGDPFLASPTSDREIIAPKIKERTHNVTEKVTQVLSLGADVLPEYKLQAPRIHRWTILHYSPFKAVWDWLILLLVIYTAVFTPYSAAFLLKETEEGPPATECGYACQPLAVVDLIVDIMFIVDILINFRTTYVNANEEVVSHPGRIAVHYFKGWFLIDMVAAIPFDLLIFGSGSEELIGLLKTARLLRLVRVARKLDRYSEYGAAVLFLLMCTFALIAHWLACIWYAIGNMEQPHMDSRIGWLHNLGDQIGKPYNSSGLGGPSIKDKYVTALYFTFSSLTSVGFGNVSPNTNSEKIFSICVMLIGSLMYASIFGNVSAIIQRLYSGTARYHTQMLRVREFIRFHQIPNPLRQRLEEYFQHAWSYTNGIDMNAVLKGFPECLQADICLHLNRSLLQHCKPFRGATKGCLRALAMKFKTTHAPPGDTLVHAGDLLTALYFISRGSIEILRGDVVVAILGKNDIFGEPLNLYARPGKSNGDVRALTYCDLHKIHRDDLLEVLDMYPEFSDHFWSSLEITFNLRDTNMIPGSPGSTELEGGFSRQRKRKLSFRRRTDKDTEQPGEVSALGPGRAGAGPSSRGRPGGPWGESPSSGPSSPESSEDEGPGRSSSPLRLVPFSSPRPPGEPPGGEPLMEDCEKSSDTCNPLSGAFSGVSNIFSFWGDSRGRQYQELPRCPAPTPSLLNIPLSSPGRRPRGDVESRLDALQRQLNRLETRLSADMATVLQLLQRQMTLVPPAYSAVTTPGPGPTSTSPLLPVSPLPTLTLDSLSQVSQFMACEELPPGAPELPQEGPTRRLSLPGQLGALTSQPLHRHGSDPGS
# [7] = test system: BOO model of incontinence; details: BOO rats, intravesical infusion
# Excerpt: Efficacy of the varying doses of TRPA1 inhibitory compound were compared to controls administered excipients alone (sham control). Efficacy was also compared to rats administered a positive control, such as atropine.
# Female Sprague Dawley rats were used in these studies. Rats underwent surgical partial bladder outlet obstruction (BOO) or sham surgery. Five weeks after BOO (or sham) surgery, an intravesical catheter was surgically implanted into the dome of the bladder for conducting urodynamic studies. One week after catheter implantation (6 weeks after BOO or sham), urodynamic studies began. […] An analytic balance beneath the wire-bottom animal cage measured the amount of urine voided during continuous cystometry. […]
# For each CMG cycle, the following parameters were assessed: infused volume (the amount of saline or drug infused for each CMG cycle); void volume (the amount of urine voided by the animal for each CMG cycle); minimum pressure (minimum pressure during filling); threshold pressure (pressure prior to micturition when bladder pressure begins to rise steeply); average pressure (average pressure during filling and before threshold); maximum pressure; intermicturition interval (time between two subsequent voiding events); urine flow rate index.
# [8] = test system: bradykinin induced tactile allodynia; assay: Bradykinin induced pain model; type: in vivo, rat
# Method: As outlined above, the bradykinin model involves an intraplantar injection of a 5 ng/uL solution of bradykinin. Injection of the bradykinin solution typically causes a rapid sensitization. Sensitization is measured by assessing the thermal escape latency of the injected paw in response to a mild thermal stimulus delivered by a modified Hargreaves apparatus. FIGS. 1a and 1b summarize data obtained following testing of Compound 200 in the bradykinin model. This study examined the antinociceptive effects of 200 mg/kg, 50 mg/kg, and 12.5 mg/kg intraperitoneal Compound 200 on bradykinin induced tactile allodynia. […] Inhibitor or vehicle were injected intraperitoneally (IP). […] Throughout the study, general behavioral assessments were made during each period of observation. Observations included tactile allodynia (vocalization/agitation induced by light touch applied to the body surface), spontaneous vocalization, biting and chewing of body surface, loss of hind limb placing and stepping reflex, loss of hind limb weight bearing, and loss of righting reflex. Additionally, mechanical allodynia was assessed and measured. The results provided in FIGS. 1a and 1b are based on assessment of mechanical allodynia.
# [9] = test system: CFA model of inflammatory pain; assay: CFA model of inflammatory pain
# Method: FIG. 4 summarizes data obtained following testing of Compound 200 in the CFA model. Naive rats were pretested for sensitivity to a heat stimulus in the Hargreaves apparatus. The next day, 100 μL of complete Freund's adjuvant (CFA) was injected into the plantar surface of the right hindpaw. Two days later, in the morning, the rats were again pretested. In the afternoon, rats were injected with either vehicle control or with drug (TRPA1 inhibitor 200 or the non-steroidal anti-inflammatory diclofenac). Drugs or vehicle were injected intraperitoneally, and 45 minutes later rats were tested for hyperalgesia by applying the heat source to the CFA injected and uninjected hindpaw and measuring latency to withdrawal.
# [10] = plasma, male Sprague-Dawley rat, intravenous bolus 0.9 mg/kg
# T1 sequence (O75762 whole entry K186N): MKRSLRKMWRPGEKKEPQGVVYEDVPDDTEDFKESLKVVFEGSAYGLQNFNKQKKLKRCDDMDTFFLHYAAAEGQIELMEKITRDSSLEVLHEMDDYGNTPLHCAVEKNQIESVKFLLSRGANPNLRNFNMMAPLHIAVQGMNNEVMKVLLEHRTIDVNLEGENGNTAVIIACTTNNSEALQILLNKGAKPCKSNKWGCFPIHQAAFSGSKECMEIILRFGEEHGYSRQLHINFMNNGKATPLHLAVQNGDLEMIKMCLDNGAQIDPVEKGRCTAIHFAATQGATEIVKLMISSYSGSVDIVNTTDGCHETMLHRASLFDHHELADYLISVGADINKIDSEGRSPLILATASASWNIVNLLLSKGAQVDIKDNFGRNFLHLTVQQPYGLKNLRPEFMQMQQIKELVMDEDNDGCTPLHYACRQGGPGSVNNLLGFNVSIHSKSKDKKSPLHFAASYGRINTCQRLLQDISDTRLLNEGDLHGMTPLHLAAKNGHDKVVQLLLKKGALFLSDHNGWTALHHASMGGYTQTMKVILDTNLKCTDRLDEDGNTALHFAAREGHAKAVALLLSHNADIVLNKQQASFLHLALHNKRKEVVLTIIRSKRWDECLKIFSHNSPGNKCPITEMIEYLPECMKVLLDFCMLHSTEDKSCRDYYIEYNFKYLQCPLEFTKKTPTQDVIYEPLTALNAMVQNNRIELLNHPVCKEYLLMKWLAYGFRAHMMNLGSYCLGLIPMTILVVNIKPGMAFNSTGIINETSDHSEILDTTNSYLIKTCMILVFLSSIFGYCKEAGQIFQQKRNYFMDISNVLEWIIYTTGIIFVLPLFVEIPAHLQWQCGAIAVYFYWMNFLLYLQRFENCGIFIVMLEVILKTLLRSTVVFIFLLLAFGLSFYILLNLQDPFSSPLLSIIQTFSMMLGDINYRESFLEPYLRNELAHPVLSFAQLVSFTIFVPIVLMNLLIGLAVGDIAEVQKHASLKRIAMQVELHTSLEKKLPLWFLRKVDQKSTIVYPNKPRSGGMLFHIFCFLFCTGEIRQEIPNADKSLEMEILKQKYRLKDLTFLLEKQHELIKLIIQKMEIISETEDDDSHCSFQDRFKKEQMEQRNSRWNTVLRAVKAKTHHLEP
smiles,measurement,setting,value
"CC(C)c1ccc(NC(=O)Cn2cnc3c2c(=O)n(C)c(=O)n3C)cc1 [Compound 200, 2-(1,3-dimethyl-2,6-dioxo-1,2,3,6-tetrahydropurin-7-yl)-N-(4-isopropylphenyl)acetamide]",IC50,"[1]; Table 2, inward current, read-out: hTRPA1 Patch Inwd IC50",≤ 5 µM
same,IC50,"[1]; stated in Example 4 (1000 nM=355 ng/mL), read-out: IC50 against TRPA1",1 µM
same,bioavailability,"[2]; male, Sprague-Dawley, plasma, fasted rat, oral suspension 12 mg/kg",~8%
same,concentration at 45 min,"[2]; male, Sprague-Dawley, plasma, rat, oral 12 mg/kg, 45 min",~355 ng/mL
same,clearance,[2]; [10],27 mL/min/kg
same,half-life,[2]; [10],32 min
same,Vd,"[2]; plasma, male Sprague-Dawley rat, intravenous bolus 0.9 mg/kg, read-out: volume of distribution",1.28 L/kg
same,plasma levels,"[2]; rat, intraperitoneal 12 mg/kg, 15-60 min",~355 ng/mL
same,IC50,[3],> 10 µM
same,selective for TRPA1 over TRPV4,[3],≥ 5 fold
same,selective for TRPA1 over NaV1.2,[4],≥ 25 fold
same,IC50,[4]; read-out: hNaV1.2 IC50,≥ 30 µM
same,stable in rat plasma,[5],≥ 1 h
same,selectivity ratio,[6],≥ 20
same,maximum bladder pressure,[7],decreased
same,threshold bladder pressure,[7],decreased
same,effect on mechanical threshold / allodynia after bradykinin injection,"[8]; IP 12.5, 50, 200 mg/kg, 30 min before bradykinin",dose dependent effect; also recorded: dose dependent decrease of allodynia
same,changes in behavioral parameters,[8]; IP doses up to 200 mg/kg,no changes in behavioral parameters were noted
same,duration of effect on mechanical threshold,[8]; IP doses up to 200 mg/kg,approximately 60 minutes
same,rats with mild sedation,[8]; highest dose (200 mg/kg IP),3 of 8
same,efficacy compared with diclofenac,[9]; IP,superior to diclofenac
same,thermal hyperalgesia,"[9]; IP, 45 minutes before test, CFA injected paw",reduced
same,toxicity,"[9]; rat, in vivo, ip",without toxicity
same,control paw (uninflamed) sensation,[9]; uninjected hindpaw,not affected
